Reference: PMC10146186, “Modulation of the Cytotoxic Properties of Pd(II) Complexes Based on Functionalized Carboxamides Featuring Labile Phosphoryl Coordination Sites” (Pharmaceutics, 2023)
Where two headings read alike, the source gives them in different places.

Assays:
K562 cells = test: MTT assay with complexes preliminarily kept in DMSO–RPMI 1640, K562; type: cell-based, human; settings: K562, kept in DMSO–RPMI 1640 (1/10 by volume) for 48 h before experiment, 72 h incubation
Description: (§1) The observed dependences correlate well with our previous findings on the lability of the phosphoryl sites in palladocycles 2a,b, 3a,b and can be rationalized in terms of their coordination behavior. […] However, the presence of an additional competitive chloride anion makes complex 2b potentially more susceptible to decoordination of the phosphoryl arm. […] At least the N,N-bidentately bound core remained intact in the mentioned media over a period of 48 h.
(§2) Figure S51. Effect of complexes 2b (a) and 3b (b) dissolved either in neat DMSO or DMSO–RPMI 1640 mixture on AMO1 and K562 cells (cell viability was defined by the conventional MTT assay according to the methodology described in the Experimental section with slight modifications: the complexes explored were preliminarily kept in neat DMSO or DMSO–RPMI 1640 mixture for 2 days before the experiments and the following incubation period […]

[1] = 31P NMR stability study in CDCl3–(CD3)2SO mixture; type: physicochemical; settings: commensurable decomposition degree reached only in a week
Description: as §1

AMO1 cells = test: MTT assay with complexes preliminarily kept in DMSO–RPMI 1640, AMO1; type: cell-based, human; settings: AMO1, kept in DMSO–RPMI 1640 (1/10 by volume) for 48 h before experiment, 72 h incubation
Description: as §1, §2

[2] = system: HBL100/Dox doxorubicin-resistant mammary epithelial cells; test: MTT cytotoxicity assay, HBL100/Dox; type: cell-based, human; settings: for IC50: MTT, 48 h exposure, read-out: IC50 ± SD, HBL100/Dox
Description: (§3) To characterize the antitumor potential of the resulting Pd(II) pincer complexes, their cytotoxicities against a panel of human solid and hematopoietic cancer cell lines, including colorectal carcinoma (HCT116), breast cancer (MCF7), prostate adenocarcinoma (PC3), glioblastoma (U251), ovarian adenocarcinoma (Scov3), chronic myelogenous leukemia (K562) and its resistant subclone (K562/iS9), multiple plasmacytoma (AMO1), and acute lymphoblastic leukemia (H9) cell lineages, were evaluated using the conventional MTT assay. […] For comparison, the inhibitory effects of the compounds explored on noncancerous human embryonic kidney cells HEK293 as well as transformed breast cells HBL100 and their doxorubicin-resistant analogs HBL100/Dox were also investigated under the same conditions.
(§4) The cytotoxic activity of the compounds explored was investigated on human colorectal carcinoma (HCT116), breast cancer (MCF7), prostate adenocarcinoma (PC3), glioblastoma (U251), ovarian adenocarcinoma (Scov3), chronic myelogenous leukemia (K562 and K562/iS9), multiple plasmacytoma (AMO1), and acute lymphoblastic leukemia (H9) cell lines, as well as human embryonic kidney (HEK293) and mammary epithelial (HBL100 and HBL100/Dox) cells used as representatives of pseudonormal cells. All cell lines were obtained from American Type Culture Collection (ATCC). RPMI-1640 and DMEM media were obtained from Gibco. Fetal bovine serum (FBS) was purchased from HyClone. Cells were cultured in RPMI-1640 or DMEM media supplemented with 10% FBS and 50 μg/mL gentamicin in a humidified incubator with 5% CO2 atmosphere. The cell growth inhibitory effects of the compounds were evaluated using the conventional MTT assay (ICN Biomedicals, Eschwege, Germany). Cells were seeded in triplicate at a cell density of 5 × 10^3/well in 96-well plates in 100 µL complete medium and preincubated for 24 h. The tested compounds were initially dissolved in DMSO. Then, the compounds at various concentrations were added to the media. The well plates were incubated for 48 h followed by addition of MTT solution (Sigma, Darmstadt, Germany) (20 μL, 5 mg/mL). The cells were incubated at 37 °C for further 3 h; then the culture medium was removed, and formazan crystals were dissolved in DMSO (70 μL). The absorbance of the resulting solutions was measured on a multi-well plate reader (Multiskan FC, Thermo scientific) at 530 nm to determine the percentage of surviving cells. The reported values of IC50 are the averages of three independent experiments (Table 2 and Table 3). Cisplatin (in the initial form of an infusion concentrate in natural saline solution) from a commercial source was used as the reference.

MCF7 breast cancer cells = test: MTT cytotoxicity assay, MCF7; type: cell-based, human; settings: for IC50: MCF7, MTT, 48 h exposure, read-out: IC50 ± SD, MCF7
Description: as §3, §4

[3] = system: AMO1 multiple plasmacytoma cells; test: MTT cytotoxicity assay, AMO1; type: cell-based, human; settings: for IC50: AMO1, MTT, 48 h exposure, read-out: IC50 ± SD, AMO1
Description: as §3, §4

U251 glioblastoma cells = test: MTT cytotoxicity assay, U251; type: cell-based, human; settings: read-out: IC50 ± SD, U251
Description: as §3, §4

[4] = system: HCT116 colorectal carcinoma cells; test: MTT cytotoxicity assay, HCT116; type: cell-based, human; settings: read-out: IC50 ± SD, HCT116
Description: as §3, §4

[5] = system: H9 acute lymphoblastic leukemia cells; test: MTT cytotoxicity assay, H9; type: cell-based, human; settings: 48 h exposure, read-out: IC50 ± SD, H9
Description: as §3
as §4, with “Then, the compounds at various concentrations were added to the media. The well plates were incubated for 48 h followed by addition of MTT solution (Sigma, Darmstadt, Germany) (20 μL, 5 mg/mL). The cells were incubated at 37 °C for further 3 h; then the culture medium was removed, and formazan crystals were dissolved in DMSO (70 μL).” left out, “The reported values of IC50 are the averages of three independent experiments (Table 2 and Table 3). Cisplatin (in the initial form of an infusion concentrate in natural saline solution) from a commercial source was used as the reference.” left out

[6] = system: K562/iS9 resistant chronic myelogenous leukemia cells; test: MTT cytotoxicity assay, K562/iS9; type: cell-based, human; settings: read-out: IC50 ± SD, K562/iS9
Description: as §3, §4

[7] = system: HEK293 embryonic kidney cells; test: MTT cytotoxicity assay, HEK293; type: cell-based, human; settings: HEK293 noncancerous cells, 48 h exposure, read-out: IC50 ± SD, HEK293
Description: as §3, §4

[8] = system: K562 chronic myelogenous leukemia cells; test: MTT cytotoxicity assay, K562; type: cell-based, human; settings: 48 h exposure, read-out: IC50 ± SD, K562
Description: as §3, §4

[9] = system: PC3 prostate adenocarcinoma cells; test: MTT cytotoxicity assay, PC3; type: cell-based, human; settings: 48 h exposure, read-out: IC50 ± SD, PC3
Description: as §3, §4

[10] = system: HBL100 mammary epithelial cells; test: MTT cytotoxicity assay, HBL100; type: cell-based, human; settings: read-out: IC50 ± SD, HBL100
Description: as §3, §4

[11] = system: Scov3 ovarian adenocarcinoma cells; test: MTT cytotoxicity assay, Scov3; type: cell-based, human; settings: Scov3, MTT, 48 h exposure, read-out: IC50 ± SD, Scov3
Description: as §3, §4

[12] = Solubility and stability in solvents (observation); type: physicochemical; settings: for stability in DMSO: strongly coordinating media (DMSO)
From the text: To further explore the effect of lability of coordination sites on the biological activity of this type of cyclopalladated complexes, we decided to modify the second arm in the O,N,N-ligand framework, specifically the ancillary N-donor group, replacing the pyridine unit for a more rigid quinoline moiety. The reaction of [amino(phenyl)methyl]diphenylphosphine oxide hydrochloride with in situ generated quinoline-2-carboxylic acid chloride smoothly furnished functionalized amide 4, which, in turn, readily underwent direct cyclopalladation, affording Pd(II) pincer complex 5 (Scheme 4). The molecular structure of this palladocycle is presented in Figure 4, while its main geometric parameters are listed in Table S1 in the SI. Unfortunately, complex 5 appeared to be insoluble in common organic solvents and unstable in strongly coordinating media (e.g., DMSO); a possible reason for the stability issues is its highly constrained structure. Therefore, it was withdrawn from the cytotoxicity studies.
A solution of PdCl2(NCPh)2 (70 mg, 0.182 mmol) in CH2Cl2 (4 mL) was added dropwise to a solution of ligand 4 (84 mg, 0.182 mmol) and Et3N (26 μL, 0.186 mmol) in CH2Cl2 (6 mL). The reaction mixture was left under ambient conditions for 1 day and then filtered through a pad of cotton. The filtrate was evaporated to dryness. The resulting residue was washed with Et2O and purified by column chromatography on silica gel (eluent: CHCl3–EtOH (25:1)) to give 60 mg of the target pincer complex as a yellow crystalline solid. Yield: 55%. Mp: >175 °C (dec.). ^31P{^1H} NMR (161.98 MHz, CH2Cl2/D2O): δ 72.32 ppm (the ^1H and ^13C{^1H} NMR spectroscopic data for complex 5 were not obtained due to its low solubility in common organic solvents (e.g., chlorinated hydrocarbons and acetonitrile) and instability in strongly coordinating media (e.g., DMSO)). IR (KBr, ν/cm^–1): 521(w), 534(w), 561(s), 586(w), 699(m), 725(w), 766(w), 852(w), 927(vw), 998(w), 1024(m), 1042(m), 1121(m) (νP=O), 1154(w), 1341(w), 1378(br, m), 1437(m), 1461(w), 1493(w), 1516(w), 1560(w), 1595(w), 1633(s) (νC=O), 2923(vw), 3064(w). […]

SMILES | IC50 [2] | IC50 (MCF7 breast cancer cells) | IC50 [3] | IC50 (U251 glioblastoma cells; 48 h exposure) | IC50 ([4]; 48 h exposure) | IC50 ([6]; 48 h exposure) | IC50 [7] | IC50 [8] | IC50 [9] | IC50 ([10]; 48 h exposure) | IC50 [11] | stability in DMSO [12] | also measured
O=C(c1ccccn1)[N]([Pd][Cl])C(c1ccccc1)P(=O)(c1ccccc1)c1ccccc1 (stereo not drawn) [complex 3b, [κ^3-O,N,N-(L)Pd(II)Cl]] | 28 ± 2.6 µM | 13 ± 1.5 µM | 2.7 ± 0.5 µM | 43 ± 5 µM | 4 ± 2 µM | 7.2 ± 1 µM | 12.5 ± 3.5 µM | 6.4 ± 0.4 µM | 16 ± 2 µM | 17.8 ± 0.8 µM | 40 ± 0.6 µM | – | cytotoxic activity after keeping in DMSO–RPMI 1640 mixture vs neat DMSO (K562 cells): comparable; stability in CDCl3–(CD3)2SO mixture [1]: quite stable; cytotoxic activity after keeping in DMSO–RPMI 1640 mixture vs neat DMSO (AMO1 cells): comparable; IC50 [5]: 3.2 ± 0.2 µM
O=C(NCP(=O)(c1ccccc1)c1ccccc1)c1ccccn1 [ligand 1a, N-[(Diphenylphosphoryl)methyl]picolinamide] | – | – | – | – | – | – | – | – | – | – | – | – | percentage of live cells ([2]; compound concentration 100.0 μM, 48 h): 35% ^3; percentage of live cells (MCF7 breast cancer cells; MCF7, compound concentration 100.0 μM, 48 h): 46% ^3; percentage of live cells ([3]; AMO1, compound concentration 80.0 μM, 48 h): 41% ^3; IC50 (U251 glioblastoma cells; Homo sapiens, U-251, 48 h exposure): > 100 µM; IC50 ([4]; Homo sapiens, HCT-116, 48 h exposure): > 100 µM; IC50 ([5]; Homo sapiens): > 80 µM; IC50 ([6]; Homo sapiens, K562i/S9, 48 h exposure): > 80 µM; IC50 ([7]; Homo sapiens): > 100 µM; IC50 ([8]; Homo sapiens): > 80 µM; IC50 ([9]; Homo sapiens): > 100 µM; IC50 ([10]; Homo sapiens, HBL-100, 48 h exposure): > 100 µM; IC50 ([11]; Homo sapiens): > 100 µM
O=C(c1cccc2cccnc12)[N](CP(=O)(c1ccccc1)c1ccccc1)[Pd][Cl] [complex 7, [κ^3-O,N,N-(L)Pd(II)Cl]] | – | 58 ± 12 µM | – | – | 38 ± 6 µM | – | 23 ± 3 µM | – | 52 ± 10 µM | – | – | stable | –
O=C(c1ccc2ccccc2n1)[N]([Pd][Cl])C(c1ccccc1)P(=O)(c1ccccc1)c1ccccc1 (stereo not drawn) [complex 5, [κ^3-O,N,N-(L)Pd(II)Cl]] | – | – | – | – | – | – | – | – | – | – | – | unstable | solubility in common organic solvents ([12]; common organic solvents): insoluble
N.N.[Cl][Pt][Cl] [Cisplatin, reference compound] | 23.6 ± 3.6 µM | 25 ± 4 µM | 3.2 ± 0.6 µM | 16.5 ± 1.5 µM | 18 ± 2 µM | 16 ± 2 µM | 12.5 ± 1.5 µM | 15.5 ± 0.5 µM | 16 ± 3 µM | 14.6 ± 3.6 µM | 21 ± 3 µM | – | –
